Values after ≈ are worked out from the molar mass of the structure shown.
Key:
[1] = system: Escherichia coli W-677/JR 214; assay: MIC (Table 2); settings: W677/JR214, read-out: Minimum Inhibitory Concentration (MIC)
[2] = system: Serratia marcescens MA-26; assay: MIC (Table 2); settings: MA26, read-out: Minimum Inhibitory Concentration (MIC)
[3] = system: Escherichia coli W-677/JR 762; assay: MIC (Table 2); settings: W677/JR762, read-out: Minimum Inhibitory Concentration (MIC)
Escherichia coli TB-705 = assay: MIC (Table 2); format: cell-based; settings: TB705, read-out: Minimum Inhibitory Concentration (MIC)
Sarcina lutea PCI 1001 = assay: MIC (Table 2); format: cell-based; settings: Micrococcus luteus, PCI1001, read-out: Minimum Inhibitory Concentration (MIC)
[4] = system: Citrobactor freundii Ct-31; assay: MIC (Table 2); settings: read-out: Minimum Inhibitory Concentration (MIC)
Proteus mirabilis Pm-5 = assay: MIC (Table 2); settings: PM5, read-out: Minimum Inhibitory Concentration (MIC)
[5] = system: Streptococcus pyogenes ATCC 10389; assay: MIC (Table 2); settings: ATCC10389, read-out: Minimum Inhibitory Concentration (MIC)
[6] = system: Escherichia coli W-677/JR 66; assay: MIC (Table 2); settings: W677/JR66, read-out: Minimum Inhibitory Concentration (MIC)
[7] = system: Staphylococcus aureus 80285; assay: MIC (Table 2); settings: Staphylococcus aureus, 80285, read-out: Minimum Inhibitory Concentration (MIC)
[8] = system: Pseudomonas aeruginosa PP-6; assay: MIC (Table 2); settings: PP6, read-out: Minimum Inhibitory Concentration (MIC)
Proteus inconstans In-27 = assay: MIC (Table 2); format: cell-based; settings: Providencia alcalifaciens, IN27, tobramycin resistant strain, read-out: Minimum Inhibitory Concentration (MIC)
[9] = system: Enterobacter cloacae CI-38; assay: MIC (Table 2); settings: CI38, read-out: Minimum Inhibitory Concentration (MIC)
[10] = system: Klebsiella pneumoniae Kl 38; assay: MIC (Table 2); settings: KL38, read-out: Minimum Inhibitory Concentration (MIC)
Proteus mirabilis TB-617 = assay: MIC (Table 3); format: cell-based; settings: TB617, read-out: Minimum Inhibitory Concentration (MIC)
[11] = system: Pseudomonas aeruginosa PP-6; assay: MIC (Table 3); format: cell-based; settings: PP6, read-out: Minimum Inhibitory Concentration (MIC)
[12] = system: Streptococcus pyogenes C-203; assay: MIC (Table 3); settings: C203, read-out: Minimum Inhibitory Concentration (MIC)
[13] = system: Escherichia coli W-677/JR-762; assay: MIC (Table 3); settings: W677/JR762, read-out: Minimum Inhibitory Concentration (MIC)
[14] = compared with kanamycin A; cited from earlier work
[15] = system: kanamycin A resistant strains; settings: cited from earlier work

NC[C@H]1O[C@H](O[C@H]2[C@H](O)[C@@H](O[C@H]3O[C@H](CO)[C@@H](O)[C@H](N)[C@H]3O)[C@H](NC(=O)C3(O)CNC3)C[C@@H]2N)[C@H](N)C[C@@H]1O [Comp. (1), 1-N-(3-hydroxyazetidine-3-carbonyl)tobramycin]
MIC [1]: 3.13 µg/mL (≈ 5.52 µM) | MIC [2]: 6.25 µg/mL (≈ 11 µM) | MIC [3]: 3.13 µg/mL (≈ 5.52 µM) | MIC (Escherichia coli TB-705): 3.13 µg/mL (≈ 5.52 µM) | MIC (Sarcina lutea PCI 1001): 3.13 µg/mL (≈ 5.52 µM) | MIC [4]: 1.56 µg/mL (≈ 2.75 µM) | MIC (Proteus mirabilis Pm-5): 1.56 µg/mL (≈ 2.75 µM) | MIC [5]: 25 µg/mL (≈ 44.1 µM) | MIC [6]: 3.13 µg/mL (≈ 5.52 µM) | MIC [7]: 0.78 µg/mL (≈ 1.38 µM) | MIC [8]: 3.13 µg/mL (≈ 5.52 µM) | MIC (Proteus inconstans In-27): 12.5 µg/mL (≈ 22.1 µM) | MIC [9]: 0.78 µg/mL (≈ 1.38 µM) | MIC [10]: 0.78 µg/mL (≈ 1.38 µM)

NC[C@H]1O[C@H](O[C@H]2[C@H](O)[C@@H](O[C@H]3O[C@H](CO)[C@@H](O)[C@H](N)[C@H]3O)[C@H](NC(=O)C3(O)CNC3)C[C@@H]2N)[C@H](O)[C@@H](O)[C@@H]1O [Comp. (2), 1-N-(3-hydroxyazetidine-3-carbonyl)kanamycin A]
MIC [1]: 3.13 µg/mL (≈ 5.36 µM) | MIC [2]: 12.5 µg/mL (≈ 21.4 µM) | MIC [3]: 12.5 µg/mL (≈ 21.4 µM) | MIC (Escherichia coli TB-705): 12.5 µg/mL (≈ 21.4 µM) | MIC (Sarcina lutea PCI 1001): 12.5 µg/mL (≈ 21.4 µM) | MIC [4]: 3.13 µg/mL (≈ 5.36 µM) | MIC (Proteus mirabilis Pm-5): 6.25 µg/mL (≈ 10.7 µM) | MIC [5]: 50 µg/mL (≈ 85.7 µM) | MIC [6]: 6.25 µg/mL (≈ 10.7 µM) | MIC [7]: 12.5 µg/mL (≈ 21.4 µM) | MIC [8]: 6.25 µg/mL (≈ 10.7 µM) | MIC (Proteus inconstans In-27): 6.25 µg/mL (≈ 10.7 µM) | MIC [9]: 3.13 µg/mL (≈ 5.36 µM) | MIC [10]: 1.56 µg/mL (≈ 2.67 µM)

NC[C@H]1O[C@H](O[C@H]2[C@H](O)[C@@H](O[C@H]3O[C@H](CO)[C@@H](O)[C@H](N)[C@H]3O)[C@H](N)C[C@@H]2N)[C@H](O)[C@@H](O)[C@@H]1O [KM-A, kanamycin A]
MIC [1]: > 100 µg/mL | MIC [2]: > 100 µg/mL | MIC [3]: > 100 µg/mL | MIC (Escherichia coli TB-705): > 100 µg/mL | MIC (Sarcina lutea PCI 1001): 12.5 µg/mL (≈ 25.8 µM) | MIC [4]: > 100 µg/mL | MIC (Proteus mirabilis Pm-5): > 100 µg/mL | MIC [5]: 100 µg/mL (≈ 206 µM) | MIC [6]: > 100 µg/mL | MIC [7]: > 100 µg/mL | MIC [8]: > 100 µg/mL | MIC (Proteus inconstans In-27): > 100 µg/mL | MIC [9]: > 100 µg/mL | MIC [10]: > 100 µg/mL

NC[C@H]1O[C@H](O[C@H]2[C@H](O)[C@@H](O[C@H]3O[C@H](CO)[C@@H](O)[C@H](N)[C@H]3O)[C@H](N)C[C@@H]2N)[C@H](N)C[C@@H]1O [TOB, tobramycin]
MIC (Proteus mirabilis TB-617): 6.2 µg/mL (≈ 13.3 µM) | MIC [1]: 100 µg/mL (≈ 214 µM) | MIC [2]: 50 µg/mL (≈ 107 µM) | MIC [3]: 100 µg/mL (≈ 214 µM) | MIC [11]: 100 µg/mL (≈ 214 µM) | MIC (Escherichia coli TB-705): 6.25 µg/mL (≈ 13.4 µM) | MIC (Sarcina lutea PCI 1001): 12.5 µg/mL (≈ 26.7 µM) | MIC [4]: 3.13 µg/mL (≈ 6.69 µM) | MIC (Proteus mirabilis Pm-5): 12.5 µg/mL (≈ 26.7 µM) | MIC [12]: 6.2 µg/mL (≈ 13.3 µM) | MIC [13]: 25 µg/mL (≈ 53.5 µM) | MIC [5]: 25 µg/mL (≈ 53.5 µM) | MIC [6]: 25 µg/mL (≈ 53.5 µM) | MIC [7]: 0.78 µg/mL (≈ 1.67 µM) | MIC [8]: > 100 µg/mL | MIC (Proteus inconstans In-27): 12.5 µg/mL (≈ 26.7 µM) | MIC [9]: 0.78 µg/mL (≈ 1.67 µM) | MIC [10]: 1.56 µg/mL (≈ 3.34 µM)

NCC[C@H](O)C(=O)N[C@@H]1C[C@H](N)[C@@H](O[C@H]2O[C@H](CN)[C@@H](O)[C@H](O)[C@H]2O)[C@H](O)[C@H]1O[C@H]1O[C@H](CO)[C@@H](O)[C@H](N)[C@H]1O [amikacin]
toxicity [14]: approximately the same as kanamycin A | effect against kanamycin A resistant strains [15]: effective against kanamycin A resistant strains
